The text below walks through data of patent US20250154109A1, “SODIUM CHANNEL BLOCKING COMPOUNDS, DERIVATIVES THEREOF, AND METHODS OF THEIR USE” (LATIGO BIOTHERAPEUTICS, INC, priority 2022, published 2025).

Counter-ions that a name gives are not always drawn. Like-named read-outs stand apart in the source and are kept apart here. Where only a bound is given, the exact number is not on record here.

The target in this assay is human Nav1.8 (Homo sapiens, UniProt Q9Y5Y9). The experiment in a line: SyncroPatch384PE assay (automated patch clamp). It counts as cell-based. Conditions: human Nav1.8/b3 CHO cells. For orientation: The patch-clamp technique gives a direct electrical read-out from membranes.
Sequence of human Nav1.8 (Q9Y5Y9 whole entry): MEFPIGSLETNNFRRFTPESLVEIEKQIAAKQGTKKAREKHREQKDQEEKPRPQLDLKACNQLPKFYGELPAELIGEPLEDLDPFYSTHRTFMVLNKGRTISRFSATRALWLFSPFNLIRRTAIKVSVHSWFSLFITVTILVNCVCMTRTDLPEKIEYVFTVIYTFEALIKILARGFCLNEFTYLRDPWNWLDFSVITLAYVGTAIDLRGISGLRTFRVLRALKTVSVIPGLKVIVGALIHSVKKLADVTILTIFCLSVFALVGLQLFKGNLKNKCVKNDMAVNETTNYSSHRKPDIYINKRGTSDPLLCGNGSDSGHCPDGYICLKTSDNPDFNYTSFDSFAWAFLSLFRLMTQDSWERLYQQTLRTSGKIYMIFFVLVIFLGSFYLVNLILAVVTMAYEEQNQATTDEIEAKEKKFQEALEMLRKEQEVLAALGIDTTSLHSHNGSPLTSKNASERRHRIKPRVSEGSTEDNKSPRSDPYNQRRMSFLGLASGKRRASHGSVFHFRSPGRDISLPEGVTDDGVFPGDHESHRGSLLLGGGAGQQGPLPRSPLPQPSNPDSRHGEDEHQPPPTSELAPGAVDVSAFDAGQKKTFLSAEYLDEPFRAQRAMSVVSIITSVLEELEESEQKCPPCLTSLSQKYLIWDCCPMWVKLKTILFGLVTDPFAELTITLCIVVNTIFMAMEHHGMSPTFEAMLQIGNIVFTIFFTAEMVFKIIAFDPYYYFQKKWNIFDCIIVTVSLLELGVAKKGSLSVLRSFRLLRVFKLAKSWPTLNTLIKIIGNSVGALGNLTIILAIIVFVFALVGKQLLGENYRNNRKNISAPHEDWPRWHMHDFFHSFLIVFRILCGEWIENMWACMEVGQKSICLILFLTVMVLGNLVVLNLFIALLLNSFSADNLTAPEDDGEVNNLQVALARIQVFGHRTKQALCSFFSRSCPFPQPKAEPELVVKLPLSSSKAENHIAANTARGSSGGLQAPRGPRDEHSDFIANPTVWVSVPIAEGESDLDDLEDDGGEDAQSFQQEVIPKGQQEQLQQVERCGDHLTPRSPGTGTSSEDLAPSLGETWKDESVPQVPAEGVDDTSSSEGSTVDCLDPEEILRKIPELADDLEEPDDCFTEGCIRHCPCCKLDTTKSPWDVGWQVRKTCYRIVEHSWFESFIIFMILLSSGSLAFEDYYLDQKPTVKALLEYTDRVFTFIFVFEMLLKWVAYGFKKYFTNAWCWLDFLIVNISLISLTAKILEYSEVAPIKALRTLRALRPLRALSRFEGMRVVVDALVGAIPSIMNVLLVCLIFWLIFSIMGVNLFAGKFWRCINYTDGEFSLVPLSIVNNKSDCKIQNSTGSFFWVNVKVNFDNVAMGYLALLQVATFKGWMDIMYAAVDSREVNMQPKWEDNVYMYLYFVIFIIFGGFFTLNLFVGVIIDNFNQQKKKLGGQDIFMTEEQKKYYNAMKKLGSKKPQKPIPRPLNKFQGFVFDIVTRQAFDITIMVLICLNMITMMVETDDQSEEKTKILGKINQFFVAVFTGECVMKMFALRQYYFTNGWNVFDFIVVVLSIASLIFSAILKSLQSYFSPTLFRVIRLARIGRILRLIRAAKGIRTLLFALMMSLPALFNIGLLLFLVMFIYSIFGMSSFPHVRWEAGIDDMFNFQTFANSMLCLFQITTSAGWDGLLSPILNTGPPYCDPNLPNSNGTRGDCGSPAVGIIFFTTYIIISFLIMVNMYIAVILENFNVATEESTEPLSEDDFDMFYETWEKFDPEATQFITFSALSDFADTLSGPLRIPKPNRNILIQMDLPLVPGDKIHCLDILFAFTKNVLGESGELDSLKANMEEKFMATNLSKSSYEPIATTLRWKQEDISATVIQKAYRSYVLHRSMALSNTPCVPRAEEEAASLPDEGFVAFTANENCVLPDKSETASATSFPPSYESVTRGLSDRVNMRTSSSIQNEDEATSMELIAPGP
[1] abbreviates: inactivated state block (P2 measurement), read-out: P2 IC50.
[2] abbreviates: resting state block (P1 measurement), read-out: P1 IC50.

As for `Cc1c(-c2cnn(C)c2)cnc(N2CCCC(F)(F)CC2)c1C(=O)Nc1ccnc([S@](C)(=N)=O)c1` [Example 200, (R)-2-(4,4-difluoroazepan-1-yl)-4-methyl-5-(1-methyl-1H-pyrazol-4-yl)-N-(2-(S-methylsulfonimidoyl)pyridin-4-yl)nicotinamide], the IC50 lay within 100 to 200 nM under setting [1] and 100 to 200 nM under setting [2].
On to `CNS(=N)(=O)c1cc(NC(=O)c2cc(C(F)(F)F)c(C)nc2N2CCCC(F)(F)CC2)ccn1` (stereo not shown) [Example 107, 2-(4,4-difluoroazepan-1-yl)-6-methyl-N-(2-(N-methylsulfamidimidoyl)pyridine-4-yl)-5-(trifluoromethyl)nicotinamide], for which the IC50 runs as follows: under setting [1], ≤ 5 nM; under setting [2], ≤ 5 nM.
In the case of `Cc1c(-c2ccc(C(F)(F)F)cc2)cnc(N2CCCC(F)(F)CC2)c1C(=O)Nc1cccc([S@](C)(=N)=O)c1` [Example 169, (R)-2-(4,4-difluoroazepan-1-yl)-4-methyl-N-(3-(S-methylsulfonimidoyl)phenyl)-5-(4-(trifluoromethyl)phenyl)nicotinamide], the IC50 is ≤ 5 nM under setting [1] and ≤ 5 nM under setting [2].
As for `Cc1c(C(F)(F)F)nnc(N2CCCC(F)(F)CC2)c1C(=O)Nc1cccc([S@@](C)(=O)=NC(=O)C2(N)CCC2)c1` [Example 234, (R)-N-(3-(N-(1-aminocyclobutane-1-carbonyl)-S-methylsulfonimidoyl)phenyl)-3-(4,4-difluoroazepan-1-yl)-5-methyl-6-(trifluoromethyl)pyridazine-4-carboxamide], the IC50 reads like this: under setting [1], ≤ 5 nM; under setting [2], ≤ 5 nM.
For the compound `Cc1c(C#N)c(C(F)(F)F)nc(N2CCCC(F)(F)CC2)c1C(=O)Nc1cccc([S@@](C)(=O)=NC(=O)C2(N)CCC2)c1` [Example 73, (R)-N-(3-(N-(1-aminocyclobutane-1-carbonyl)-S-methylsulfonimidoyl)phenyl)-5-cyano-2-(4,4-difluoroazepan-1-yl)-4-methyl-6-(trifluoromethyl)nicotinamide], the IC50 fell in the range of 5 to 50 nM under setting [1] and 50 to 100 nM under setting [2].
The matching figures for `Cc1c(-c2ccccc2)cnc(N2CCCC(F)(F)CC2)c1C(=O)Nc1cccc([S@](C)(=N)=O)c1` [Example 122, (R)-2-(4,4-difluoroazepan-1-yl)-4-methyl-N-(3-(S-methylsulfonimidoyl)phenyl)-5-phenylnicotinamide]: ≤ 5 nM and ≤ 5 nM.
The matching figures for `Cc1cc(C(F)(F)F)nc(N2CCCC(F)(F)CC2)c1C(=O)Nc1cccc([S@@](C)(=N)=O)c1` [Example 34, (S)-2-(4,4-Difluoroazepan-1-yl)-4-methyl-N-(3-(S-methylsulfonimidoyl)phenyl)-6-(trifluoromethyl)nicotinamide]: ≤ 5 nM and ≤ 5 nM.
The matching figures for `Cc1c(-c2cnn(C(C)C)c2)cnc(N2CCCC(F)(F)CC2)c1C(=O)Nc1cccc([S@](C)(=N)=O)c1` [Example 160, (R)-2-(4,4-difluoroazepan-1-yl)-5-(1-isopropyl-1H-pyrazol-4-yl)-4-methyl-N-(3-(S-methylsulfonimidoyl)phenyl)nicotinamide]: 5 to 50 nM and 5 to 50 nM.
As for `Cc1nc(N2CC(F)(F)C2)nc(N2CCCC(F)(F)CC2)c1C(=O)Nc1cccc([S@](C)(=N)=O)c1` [Example 158, (R)-4-(4,4-difluoroazepan-1-yl)-2-(3,3-difluoroazetidin-1-yl)-6-methyl-N-(3-(S-methylsulfonimidoyl)phenyl)pyrimidine-5-carboxamide], the IC50 was 50 to 100 nM under setting [1] and 50 to 100 nM under setting [2].
Turning to `CNCCN=[S@](C)(=O)c1cccc(NC(=O)c2c(N3CCCC(F)(F)CC3)ncc(-c3cnn(C)c3)c2C)c1` [Example 203, (R)-2-(4,4-difluoroazepan-1-yl)-4-methyl-5-(1-methyl-1H-pyrazol-4-yl)-N-(3-(S-methyl-N-(2-(methylamino)ethyl)sulfonimidoyl)phenyl)nicotinamide], the IC50 runs as follows: under setting [1], 5 to 50 nM; under setting [2], 5 to 50 nM.
Turning to `Cc1nc(C(F)(F)F)nc(N2CCCC(F)(F)CC2)c1C(=O)Nc1cccc([S@](C)(=N)=O)c1` [Example 135, (R)-4-(4,4-difluoroazepan-1-yl)-6-methyl-N-(3-(S-methylsulfonimidoyl)phenyl)-2-(trifluoromethyl)pyrimidine-5-carboxamide], the IC50 was 5 to 50 nM under setting [1] and 5 to 50 nM under setting [2].
With `Cc1c(C#N)c(C(F)(F)F)nc(N2CCCC(F)(F)CC2)c1C(=O)Nc1cccc([S@@](C)(=O)=NC(=O)CCN)c1` [Example 58, (R)-N-(3-(N-(3-aminopropanoyl)-S-methylsulfonimidoyl)phenyl)-5-cyano-2-(4,4-difluoroazepan-1-yl)-4-methyl-6-(trifluoromethyl)nicotinamide formate], the IC50 was ≤ 5 nM under setting [1] and ≤ 5 nM under setting [2].
Turning to `C[S@@](=N)(=O)c1cccc(NC(=O)c2cc(Cl)c(C(F)(F)F)cc2N2CCC(C(F)(F)F)CC2)c1` [Example 219, (R)-5-chloro-N-(3-(S-methylsulfonimidoyl)phenyl)-4-(trifluoromethyl)-2-(4-(trifluoromethyl)piperidin-1-yl)benzamide], the IC50 is ≤ 5 nM under setting [1] and ≤ 5 nM under setting [2].
Take `CNCC(=O)N=[S@](C)(=O)c1cccc(NC(=O)c2c(N3CCCC(F)(F)CC3)nnc(-c3cnn(C)c3)c2C)c1` [Example 72, (R)-3-(4,4-difluoroazepan-1-yl)-5-methyl-6-(1-methyl-1H-pyrazol-4-yl)-N-(3-(S-methyl-N-(methylglycyl)sulfonimidoyl)phenyl)pyridazine-4-carboxamide]: the IC50 reads like this: under setting [1], 50 to 100 nM; under setting [2], 50 to 100 nM.
`Cc1nc(C(F)(F)F)nc(N2CCCC(F)(F)CC2)c1C(=O)Nc1cccc([S@@](C)(=N)=O)c1` [Example 143, (S)-4-(4,4-difluoroazepan-1-yl)-6-methyl-N-(3-(S-methylsulfonimidoyl)phenyl)-2-(trifluoromethyl)pyrimidine-5-carboxamide]: the IC50 under setting [1] was in the range of 50 to 100 nM and the IC50 under setting [2] was in the range of 50 to 100 nM.
For the compound `COc1ccc(-c2cnc(N3CCCC(F)(F)CC3)c(C(=O)Nc3cccc(S(C)(=N)=O)c3)c2C)cc1` (stereo not shown) [Example 93, 2-(4,4-difluoroazepan-1-yl)-5-(4-methoxyphenyl)-4-methyl-N-(3-(S-methylsulfonimidoyl)phenyl)nicotinamide], the IC50 reads like this: under setting [1], ≤ 5 nM; under setting [2], ≤ 5 nM.
For `Cc1c(-c2c(F)cccc2F)cnc(N2CCCC(F)(F)CC2)c1C(=O)Nc1cccc(S(C)(=N)=O)c1` (stereo not shown) [Example 104, 2-(4,4-difluoroazepan-1-yl)-5-(2,6-difluorophenyl)-4-methyl-N-(3-(S-methylsulfonimidoyl)phenyl)nicotinamide], the IC50 fell in the range of 5 to 50 nM under setting [1] and 5 to 50 nM under setting [2].
On to `Cc1c(C#N)c(C(F)(F)F)nc(N2CCCC(F)(F)CC2)c1C(=O)Nc1cccc([S@@](C)(=O)=NC(=O)C2(N)CC2)c1` [Example 66, (R)-N-(3-(N-(1-aminocyclopropane-1-carbonyl)-S-methylsulfonimidoyl)phenyl)-5-cyano-2-(4,4-difluoroazepan-1-yl)-4-methyl-6-(trifluoromethyl)nicotinamide], for which the IC50 under setting [1] was ≤ 5 nM and the IC50 under setting [2] is ≤ 5 nM.
On to `Cc1nc(N2CCNCC2)nc(N2CCCC(F)(F)CC2)c1C(=O)Nc1cccc([S@](C)(=N)=O)c1` [Example 161, (R)-4-(4,4-difluoroazepan-1-yl)-6-methyl-N-(3-(S-methylsulfonimidoyl)phenyl)-2-(piperazin-1-yl)pyrimidine-5-carboxamide], for which the IC50 was > 200 nM under setting [1] and > 200 nM under setting [2].
With `CNCC(=O)N=[S@](C)(=O)c1cccc(NC(=O)c2cc(Cl)c(C(F)(F)F)cc2N2CCCC(F)(F)CC2)c1` [Example 228, (R)-5-chloro-2-(4,4-difluoroazepan-1-yl)-N-(3-(S-methyl-N-(methylglycyl)sulfonimidoyl)phenyl)-4-(trifluoromethyl)benzamide], the IC50 was ≤ 5 nM under setting [1] and ≤ 5 nM under setting [2].
Take `Cc1c(-c2cnn(C(F)(F)F)c2)cnc(N2CCCC(F)(F)CC2)c1C(=O)Nc1cccc([S@](C)(=N)=O)c1` [Example 176, (R)-2-(4,4-difluoroazepan-1-yl)-4-methyl-N-(3-(S-methylsulfonimidoyl)phenyl)-5-(1-(trifluoromethyl)-1H-pyrazol-4-yl)nicotinamide]: the IC50 under setting [1] is ≤ 5 nM and the IC50 under setting [2] was ≤ 5 nM.
For the compound `Cc1c(-c2nccs2)cnc(N2CCCC(F)(F)CC2)c1C(=O)Nc1cccc(S(C)(=N)=O)c1` (stereo not shown) [Example 98, 2-(4,4-difluoroazepan-1-yl)-4-methyl-N-(3-(S-methylsulfonimidoyl)phenyl)-5-(thiazol-2-yl)nicotinamide], the IC50 by setting is: under setting [1], 5 to 50 nM; under setting [2], 5 to 50 nM.
As to `Cc1c(-c2cccnc2)cnc(N2CCCC(F)(F)CC2)c1C(=O)Nc1cccc(S(C)(=N)=O)c1` (stereo not shown) [Example 84, 6-(4,4-difluoroazepan-1-yl)-4-methyl-N-(3-(S-methylsulfonimidoyl)phenyl)-[3,3bipyridine]-5-carboxamide], the IC50 under setting [1] was in the range of 5 to 50 nM and the IC50 under setting [2] fell in the range of 50 to 100 nM.
With `CS(=N)(=O)c1cccc(NC(=O)c2cc(C(F)(F)F)nnc2N2CCC3(CC2)CC3)c1` (stereo not shown) [Example 14, N-(3-(S-methylsulfonimidoyl)phenyl)-3-(6-azaspiro[2.5]octan-6-yl)-6-(trifluoromethyl)pyridazine-4-carboxamide], the IC50 is, setting by setting: under setting [1], > 200 nM; under setting [2], > 200 nM.
Turning to `CS(=O)(=O)c1cccc(NC(=O)c2nnc(C(F)(F)F)cc2N2CCCCCC2)c1` [Example 37, 4-(Azepan-1-yl)-N-(3-(methylsulfonyl)phenyl)-6-(trifluoromethyl)pyridazine-3-carboxamide], the IC50 by setting is: under setting [1], > 200 nM; under setting [2], > 200 nM.
Consider `Cc1c(C(F)(F)F)nnc(N2CCCC(F)(F)CC2)c1C(=O)Nc1cccc(S(=N)(N)=O)c1` (stereo not shown) [Example 115, 3-(4,4-difluoroazepan-1-yl)-5-methyl-N-(3-sulfamidimidoylphenyl)-6-(trifluoromethyl)pyridazine-4-carboxamide], for which the IC50 reads like this: under setting [1], ≤ 5 nM; under setting [2], ≤ 5 nM.

As a reminder, the IC50 is the midpoint of a concentration-inhibition curve.
